Measurements from patent US10792289B2 (Horizon Orphan LLC, priority 2009, dated 2020).
Read-outs that look alike come from different tables or passages of the source.

Test system: P. aeruginosa isolates
Experiment: Phase 2 study: MIC of P. aeruginosa isolates to levofloxacin
Format: cell-based
Conditions: Pseudomonas aeruginosa
Method: Efficacy was evaluated by microbiologic assessment of sputum samples, time to need for anti-pseudomonal antimicrobials, the Cystic Fibrosis Questionaire-Revised (CFQ-R), and pulmonary function tests. […] Pair-wise comparisons between all the treatment arms were conducted as secondary analyses.

C[C@H]1COc2c(N3CCN(C)CC3)c(F)cc3c(=O)c(C(=O)O)cn1c23 [Levofloxacin, levofloxacin]
8.6 µg/mL: MIC (168 h, read-out: MIC to levofloxacin (all organisms), mean (SD), MITT, 240 mg BID, Day 7)
2 µg/mL: MIC50 (168 h, EE, 240 mg QD, Day 7, read-out: MIC50 (all organisms))
15.7 µg/mL: MIC (168 h, read-out: MIC to levofloxacin (all organisms), mean (SD), Table 14, EE, 120 mg QD, Day 7)
7.8 µg/mL: MIC (168 h, read-out: MIC to levofloxacin (all organisms), mean (SD), EE, combined 240 mg QD and BID, Day 7)
32 µg/mL: MIC90 (24 h, EE, 120 mg QD, Day 1, read-out: MIC90 (all organisms)) | MIC90 (24 h, MITT, 120 mg QD, Day 1, read-out: Highest MIC, MIC90) | MIC90 (24 h, MITT, 120 mg QD, Day 1, read-out: MIC90 (all organisms)) | MIC90 (24 h, MITT, 240 mg BID, Day 1, read-out: Highest MIC, MIC90) | MIC90 (24 h, MITT, 240 mg QD, Day 1, read-out: Highest MIC, MIC90) | MIC90 (24 h, MITT, combined 240 mg QD and BID, Day 1, read-out: Highest MIC, MIC90) | MIC90 (24 h, Table 14, EE, 120 mg QD, Day 1, read-out: MIC90 (all organisms)) | MIC90 (24 h, Table 14, EE, 240 mg BID, Day 1, read-out: MIC90 (all organisms)) | MIC90 (24 h, Table 14, EE, 240 mg QD, Day 1, read-out: MIC90 (all organisms)) | MIC90 (24 h, Table 14, EE, combined 240 mg QD and BID, Day 1, read-out: MIC90 (all organisms)) | MIC90 (168 h, MITT, 120 mg QD, Day 7, read-out: Highest MIC, MIC90) | MIC90 (168 h, MITT, 240 mg BID, Day 7, read-out: Highest MIC, MIC90) | MIC90 (168 h, Table 14, EE, 120 mg QD, Day 7, read-out: MIC90 (all organisms)) | MIC90 (168 h, Table 14, EE, 240 mg BID, Day 7, read-out: MIC90 (all organisms)) | MIC90 (168 h, Table 14, EE, combined 240 mg QD and BID, Day 7, read-out: MIC90 (all organisms)) | MIC90 (336 h, MITT, 120 mg QD, Day 14, read-out: Highest MIC, MIC90) | MIC90 (336 h, MITT, 120 mg QD, Day 14, read-out: MIC90 (all organisms)) | MIC90 (336 h, MITT, 240 mg BID, Day 14, read-out: Highest MIC, MIC90) | MIC90 (336 h, MITT, combined 240 mg QD and BID, Day 14, read-out: Highest MIC, MIC90)
11.8 µg/mL: MIC (168 h, read-out: Highest MIC to levofloxacin, mean (SD), MITT, combined 240 mg QD and BID, Day 7)
16 µg/mL: MIC90 (24 h, EE, 240 mg BID, Day 1, read-out: MIC90 (all organisms)) | MIC90 (24 h, EE, 240 mg QD, Day 1, read-out: MIC90 (all organisms)) | MIC90 (24 h, EE, combined 240 mg QD and BID, Day 1, read-out: MIC90 (all organisms)) | MIC90 (24 h, MITT, 240 mg BID, Day 1, read-out: MIC90 (all organisms)) | MIC90 (24 h, MITT, 240 mg QD, Day 1, read-out: MIC90 (all organisms)) | MIC90 (24 h, MITT, combined 240 mg QD and BID, Day 1, read-out: MIC90 (all organisms)) | MIC90 (168 h, EE, 120 mg QD, Day 7, read-out: MIC90 (all organisms)) | MIC90 (168 h, EE, 240 mg BID, Day 7, read-out: MIC90 (all organisms)) | MIC90 (168 h, EE, 240 mg QD, Day 7, read-out: MIC90 (all organisms)) | MIC90 (168 h, EE, combined 240 mg QD and BID, Day 7, read-out: MIC90 (all organisms)) | MIC90 (168 h, MITT, 120 mg QD, Day 7, read-out: MIC90 (all organisms)) | MIC90 (168 h, MITT, 240 mg BID, Day 7, read-out: MIC90 (all organisms)) | MIC90 (168 h, MITT, 240 mg QD, Day 7, read-out: Highest MIC, MIC90) | MIC90 (168 h, MITT, 240 mg QD, Day 7, read-out: MIC90 (all organisms)) | MIC90 (168 h, MITT, combined 240 mg QD and BID, Day 7, read-out: Highest MIC, MIC90) | MIC90 (168 h, MITT, combined 240 mg QD and BID, Day 7, read-out: MIC90 (all organisms)) | MIC90 (168 h, Table 14, EE, 240 mg QD, Day 7, read-out: MIC90 (all organisms)) | MIC90 (336 h, EE, 240 mg BID, Day 14, read-out: MIC90 (all organisms)) | MIC90 (336 h, EE, 240 mg QD, Day 14, read-out: MIC90 (all organisms)) | MIC90 (336 h, EE, combined 240 mg QD and BID, Day 14, read-out: MIC90 (all organisms)) | MIC90 (336 h, MITT, 240 mg BID, Day 14, read-out: MIC90 (all organisms)) | MIC90 (336 h, MITT, 240 mg QD, Day 14, read-out: Highest MIC, MIC90) | MIC90 (336 h, MITT, 240 mg QD, Day 14, read-out: MIC90 (all organisms))
6 µg/mL: MIC50 (24 h, MITT, 240 mg BID, Day 1, read-out: Highest MIC, MIC50) | MIC50 (24 h, Table 14, EE, 240 mg BID, Day 1, read-out: MIC50 (all organisms)) | MIC50 (168 h, MITT, 240 mg BID, Day 7, read-out: Highest MIC, MIC50) | MIC50 (336 h, MITT, 120 mg QD, Day 14, read-out: MIC50 (all organisms)) | MIC50 (336 h, MITT, 240 mg BID, Day 14, read-out: Highest MIC, MIC50)
4 µg/mL: MIC50 (24 h, EE, 120 mg QD, Day 1, read-out: MIC50 (all organisms)) | MIC50 (24 h, EE, 240 mg BID, Day 1, read-out: MIC50 (all organisms)) | MIC50 (24 h, EE, 240 mg QD, Day 1, read-out: MIC50 (all organisms)) | MIC50 (24 h, EE, combined 240 mg QD and BID, Day 1, read-out: MIC50 (all organisms)) | MIC50 (24 h, MITT, 120 mg QD, Day 1, read-out: MIC50 (all organisms)) | MIC50 (24 h, MITT, 240 mg BID, Day 1, read-out: MIC50 (all organisms)) | MIC50 (24 h, MITT, 240 mg QD, Day 1, read-out: Highest MIC, MIC50) | MIC50 (24 h, MITT, 240 mg QD, Day 1, read-out: MIC50 (all organisms)) | MIC50 (24 h, MITT, combined 240 mg QD and BID, Day 1, read-out: Highest MIC, MIC50) | MIC50 (24 h, MITT, combined 240 mg QD and BID, Day 1, read-out: MIC50 (all organisms)) | MIC50 (24 h, Table 14, EE, 240 mg QD, Day 1, read-out: MIC50 (all organisms)) | MIC50 (24 h, Table 14, EE, combined 240 mg QD and BID, Day 1, read-out: MIC50 (all organisms)) | MIC50 (168 h, EE, 120 mg QD, Day 7, read-out: MIC50 (all organisms)) | MIC50 (168 h, EE, 240 mg BID, Day 7, read-out: MIC50 (all organisms)) | MIC50 (168 h, EE, combined 240 mg QD and BID, Day 7, read-out: MIC50 (all organisms)) | MIC50 (168 h, MITT, 120 mg QD, Day 7, read-out: MIC50 (all organisms)) | MIC50 (168 h, MITT, 240 mg BID, Day 7, read-out: MIC50 (all organisms)) | MIC50 (168 h, MITT, 240 mg QD, Day 7, read-out: Highest MIC, MIC50) | MIC50 (168 h, MITT, 240 mg QD, Day 7, read-out: MIC50 (all organisms)) | MIC50 (168 h, MITT, combined 240 mg QD and BID, Day 7, read-out: Highest MIC, MIC50) | MIC50 (168 h, MITT, combined 240 mg QD and BID, Day 7, read-out: MIC50 (all organisms)) | MIC50 (168 h, Table 14, EE, 240 mg BID, Day 7, read-out: MIC50 (all organisms)) | MIC50 (168 h, Table 14, EE, 240 mg QD, Day 7, read-out: MIC50 (all organisms)) | MIC50 (336 h, EE, 120 mg QD, Day 14, read-out: MIC50 (all organisms)) | MIC50 (336 h, EE, 240 mg BID, Day 14, read-out: MIC50 (all organisms)) | MIC50 (336 h, EE, 240 mg QD, Day 14, read-out: MIC50 (all organisms)) | MIC50 (336 h, EE, combined 240 mg QD and BID, Day 14, read-out: MIC50 (all organisms)) | MIC50 (336 h, MITT, 240 mg BID, Day 14, read-out: MIC50 (all organisms)) | MIC50 (336 h, MITT, 240 mg QD, Day 14, read-out: MIC50 (all organisms))
13.1 µg/mL: MIC (168 h, read-out: MIC to levofloxacin (all organisms), mean (SD), Table 14, EE, 240 mg BID, Day 7)
9.9 µg/mL: MIC (168 h, read-out: MIC to levofloxacin (all organisms), mean (SD), EE, 120 mg QD, Day 7)
6.7 µg/mL: MIC (168 h, read-out: MIC to levofloxacin (all organisms), mean (SD), MITT, 240 mg QD, Day 7)
37 µg/mL: MIC90 (336 h, EE, 120 mg QD, Day 14, read-out: MIC90 (all organisms))
11.9 µg/mL: MIC (168 h, read-out: MIC to levofloxacin (all organisms), mean (SD), Table 14, EE, combined 240 mg QD and BID, Day 7)
7.6 µg/mL: MIC (168 h, read-out: MIC to levofloxacin (all organisms), mean (SD), MITT, combined 240 mg QD and BID, Day 7)
9.6 µg/mL: MIC (168 h, read-out: MIC to levofloxacin (all organisms), mean (SD), MITT, 120 mg QD, Day 7)
10.9 µg/mL: MIC (168 h, read-out: MIC to levofloxacin (all organisms), mean (SD), Table 14, EE, 240 mg QD, Day 7)
13 µg/mL: MIC (168 h, read-out: Highest MIC to levofloxacin, mean (SD), MITT, 240 mg BID, Day 7)
8.8 µg/mL: MIC (168 h, read-out: MIC to levofloxacin (all organisms), mean (SD), EE, 240 mg BID, Day 7)
10.5 µg/mL: MIC (168 h, read-out: Highest MIC to levofloxacin, mean (SD), MITT, 240 mg QD, Day 7)
6.8 µg/mL: MIC (168 h, read-out: MIC to levofloxacin (all organisms), mean (SD), EE, 240 mg QD, Day 7)
15.2 µg/mL: MIC (168 h, read-out: Highest MIC to levofloxacin, mean (SD), MITT, 120 mg QD, Day 7)
8 µg/mL: MIC50 (24 h, MITT, 120 mg QD, Day 1, read-out: Highest MIC, MIC50) | MIC50 (24 h, Table 14, EE, 120 mg QD, Day 1, read-out: MIC50 (all organisms)) | MIC50 (168 h, MITT, 120 mg QD, Day 7, read-out: Highest MIC, MIC50) | MIC50 (168 h, Table 14, EE, 120 mg QD, Day 7, read-out: MIC50 (all organisms)) | MIC50 (336 h, MITT, 120 mg QD, Day 14, read-out: Highest MIC, MIC50) | MIC50 (336 h, MITT, 240 mg QD, Day 14, read-out: Highest MIC, MIC50) | MIC50 (336 h, MITT, combined 240 mg QD and BID, Day 14, read-out: Highest MIC, MIC50)
